Results reported in ChEMBL document CHEMBL1201862, “PubChem BioAssay data set” (2004).
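Results reflect a 48-hour exposure of cells in 96-well plates to compound at five concentrations. Here, GI50 denotes the concentration required for 50% inhibition of growth.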 Calls of active or inactive are those of the source. No stated cut-off is given here; in the data, active = GI50 up to about 1.1 µM and inactive = higher.

Tests used:
Test in all cases: inhibition of tumour cell growth, NCI panel, 48 h
[1] = system: A549
[2] = system: ACHN
[3] = system: CCRF-CEM
[4] = system: EKVX
[5] = system: HOP-62
[6] = system: KM12
[7] = system: MOLT-4
[8] = system: NCI-H226
[9] = system: NCI-H460
[10] = system: OVCAR-3
[11] = system: OVCAR-5
[12] = system: RPMI-8226
[13] = system: SF-268
[14] = system: SK-MEL-2
[15] = system: TK-10
[16] = system: UACC-257
[17] = system: UO-31
[18] = system: Hs-578T
[19] = system: DU-145

| SMILES | GI50 [1] | GI50 [2] | GI50 [3] | GI50 [4] | GI50 [5] | GI50 [6] | GI50 [7] | GI50 [8] | GI50 [9] | GI50 [10] | GI50 [11] | GI50 [12] | GI50 [13] | GI50 [14] | GI50 [15] | GI50 [16] | GI50 [17] | GI50 [18] | GI50 [19] |
| --- | --- | --- | --- | --- | --- | --- | --- | --- | --- | --- | --- | --- | --- | --- | --- | --- | --- | --- | --- |
| O=C1c2ccccc2C(=O)c2c(O)c(NCCNCCO)cc(O)c21 | 3.55 µM (inactive) | 2.17 µM (inactive) | 3.05 µM (inactive) | 2.47 µM (inactive) | 3.93 µM (inactive) | 3.72 µM (inactive) | 3.02 µM (inactive) | 3.83 µM (inactive) | 3.34 µM (inactive) | 4.39 µM (inactive) | 10.2 µM (inactive) | 3.88 µM (inactive) | 4.29 µM (inactive) | 5.07 µM (inactive) | 5 µM (inactive) | 6.59 µM (inactive) | 2.96 µM (inactive) | – | – |
| Cc1ccc(S(=O)(=O)NC(=O)Nc2c(S(N)(=O)=O)cc(S(N)(=O)=O)c(Cl)c2Cl)cc1 | > 100 µM (inactive) | > 100 µM (inactive) | > 100 µM (inactive) | > 100 µM (inactive) | – | > 100 µM (inactive) | > 100 µM (inactive) | > 100 µM (inactive) | > 100 µM (inactive) | > 100 µM (inactive) | > 100 µM (inactive) | > 100 µM (inactive) | > 100 µM (inactive) | > 100 µM (inactive) | > 100 µM (inactive) | > 100 µM (inactive) | > 100 µM (inactive) | > 100 µM (inactive) | – |
| C=CC[C@H](C[C@H](C[C@H](C[C@H](C[C@H](C[C@H](C[C@H](C[C@H](C[C@H](C[C@H](CCCCC)OC)OC)OC)OC)OC)OC)OC)OC)OC)OC | > 100 µM (inactive) | > 100 µM (inactive) | > 100 µM (inactive) | > 100 µM (inactive) | > 100 µM (inactive) | > 100 µM (inactive) | 41.8 µM (inactive) | 62.2 µM (inactive) | > 100 µM (inactive) | > 100 µM (inactive) | > 100 µM (inactive) | 52.4 µM (inactive) | > 100 µM (inactive) | > 100 µM (inactive) | > 100 µM (inactive) | 70.8 µM (inactive) | 50.7 µM (inactive) | – | – |
| CNCc1cc(OC)ccc1-c1ccc(OC)c(OC)c1OC | > 100 µM (inactive) | > 100 µM (inactive) | > 92.9 µM (inactive) | > 74.8 µM (inactive) | > 100 µM (inactive) | > 85.9 µM (inactive) | 99.3 µM (inactive) | > 100 µM (inactive) | > 92 µM (inactive) | > 70 µM (inactive) | > 100 µM (inactive) | > 100 µM (inactive) | > 100 µM (inactive) | > 100 µM (inactive) | > 100 µM (inactive) | > 100 µM (inactive) | > 88.1 µM (inactive) | – | – |
| Clc1ccc2nc(-c3ccccc3)nc(Cl)c2c1 | 50.6 µM (inactive) | 24.9 µM (inactive) | 38.6 µM (inactive) | 29.2 µM (inactive) | 23.9 µM (inactive) | > 100 µM (inactive) | > 100 µM (inactive) | 34 µM (inactive) | 87.9 µM (inactive) | 49.2 µM (inactive) | > 100 µM (inactive) | > 100 µM (inactive) | 52.8 µM (inactive) | 45.6 µM (inactive) | 21.7 µM (inactive) | 45 µM (inactive) | > 100 µM (inactive) | – | – |
| COc1cc(C2SCC(=O)N2Cc2ccccc2)cc(OC)c1OC (stereo not given) | > 100 µM (inactive) | > 100 µM (inactive) | > 100 µM (inactive) | > 100 µM (inactive) | – | > 100 µM (inactive) | > 100 µM (inactive) | > 100 µM (inactive) | > 100 µM (inactive) | > 100 µM (inactive) | > 100 µM (inactive) | > 100 µM (inactive) | > 100 µM (inactive) | > 100 µM (inactive) | > 100 µM (inactive) | > 100 µM (inactive) | > 100 µM (inactive) | > 100 µM (inactive) | 22.1 µM (inactive) |
| COc1c(C)c(C/C=C(\C)CC/C=C(\C)CC/C=C(\C)CCC=C(C)C)c(OC)c2ccccc12 | > 100 µM (inactive) | > 100 µM (inactive) | 28.5 µM (inactive) | > 100 µM (inactive) | > 100 µM (inactive) | > 100 µM (inactive) | > 100 µM (inactive) | – | 39.7 µM (inactive) | > 100 µM (inactive) | > 100 µM (inactive) | – | > 100 µM (inactive) | > 100 µM (inactive) | > 100 µM (inactive) | > 100 µM (inactive) | > 100 µM (inactive) | > 100 µM (inactive) | > 100 µM (inactive) |
| Nc1cc(=O)n(-c2ccccc2)c(=S)n1-c1ccccc1 | > 100 µM (inactive) | > 100 µM (inactive) | > 100 µM (inactive) | > 100 µM (inactive) | > 100 µM (inactive) | > 100 µM (inactive) | > 100 µM (inactive) | > 100 µM (inactive) | > 100 µM (inactive) | > 100 µM (inactive) | > 100 µM (inactive) | > 100 µM (inactive) | > 100 µM (inactive) | > 100 µM (inactive) | > 100 µM (inactive) | > 100 µM (inactive) | > 100 µM (inactive) | – | – |
| Cc1ccc(-c2c(C#N)c(S)n(NS(=O)(=O)c3ccccc3)c(=O)c2C#N)cc1 | 39.7 µM (inactive) | 28.1 µM (inactive) | 9.1 µM (inactive) | 31 µM (inactive) | – | 28 µM (inactive) | 15.9 µM (inactive) | 17.9 µM (inactive) | 15.6 µM (inactive) | 49 µM (inactive) | 65.9 µM (inactive) | 23.3 µM (inactive) | – | 43.8 µM (inactive) | 21.4 µM (inactive) | 61 µM (inactive) | 20.1 µM (inactive) | – | 53.3 µM (inactive) |
| OC1C#CCSCC#C/C=C\1 (stereo not given) | – | > 100 µM (inactive) | 27 µM (inactive) | > 100 µM (inactive) | > 100 µM (inactive) | – | – | > 100 µM (inactive) | 13.7 µM (inactive) | > 100 µM (inactive) | > 100 µM (inactive) | – | > 100 µM (inactive) | > 100 µM (inactive) | > 100 µM (inactive) | 30.9 µM (inactive) | > 100 µM (inactive) | 34 µM (inactive) | > 100 µM (inactive) |
| O=c1[nH]c(Br)nc2c(Br)c[nH]c12 | > 100 µM (inactive) | > 100 µM (inactive) | > 100 µM (inactive) | > 100 µM (inactive) | > 100 µM (inactive) | > 100 µM (inactive) | > 100 µM (inactive) | > 100 µM (inactive) | > 100 µM (inactive) | > 100 µM (inactive) | > 100 µM (inactive) | > 100 µM (inactive) | > 100 µM (inactive) | > 100 µM (inactive) | > 100 µM (inactive) | > 100 µM (inactive) | > 100 µM (inactive) | – | – |
| CC(C)(C=O)CC(C#N)/C(=N\NC(N)=O)C(=O)Nc1ccccc1C(N)=O (stereo not given) | > 100 µM (inactive) | > 100 µM (inactive) | > 100 µM (inactive) | > 100 µM (inactive) | > 100 µM (inactive) | > 100 µM (inactive) | > 100 µM (inactive) | > 100 µM (inactive) | > 100 µM (inactive) | > 100 µM (inactive) | > 100 µM (inactive) | > 100 µM (inactive) | > 100 µM (inactive) | > 100 µM (inactive) | > 100 µM (inactive) | > 100 µM (inactive) | > 100 µM (inactive) | – | – |
| COc1ccc(C[C@H](N)C(=O)NC2C(CO)OC(n3cnc4c(N(C)C)ncnc43)C2O)cc1 (stereo not given in full) | 0.492 µM (active) | 1.01 µM (active) | 0.145 µM (active) | 0.202 µM (active) | 0.427 µM (active) | 0.262 µM (active) | 0.13 µM (active) | 0.174 µM (active) | 0.255 µM (active) | 0.273 µM (active) | 5.31 µM (inactive) | 0.22 µM (active) | 0.354 µM (active) | 0.415 µM (active) | 0.67 µM (active) | 0.358 µM (active) | 2.68 µM (inactive) | – | – |
| CCc1cccc(C(C)C)c1NC(=O)C(=O)C(Cc1nc2ccccc2nc1O)C(=O)OC (stereo not given) | > 100 µM (inactive) | > 100 µM (inactive) | 60.8 µM (inactive) | 5.19 µM (inactive) | > 100 µM (inactive) | > 100 µM (inactive) | > 100 µM (inactive) | > 100 µM (inactive) | > 100 µM (inactive) | > 100 µM (inactive) | > 100 µM (inactive) | 39.2 µM (inactive) | 67.9 µM (inactive) | > 100 µM (inactive) | > 100 µM (inactive) | > 100 µM (inactive) | > 100 µM (inactive) | – | – |
| CC(=O)O/N=C(/C)c1ccccc1O | > 100 µM (inactive) | > 100 µM (inactive) | > 100 µM (inactive) | > 100 µM (inactive) | > 100 µM (inactive) | > 100 µM (inactive) | > 100 µM (inactive) | > 100 µM (inactive) | > 100 µM (inactive) | > 100 µM (inactive) | > 100 µM (inactive) | > 100 µM (inactive) | > 100 µM (inactive) | > 100 µM (inactive) | > 100 µM (inactive) | > 100 µM (inactive) | > 100 µM (inactive) | – | – |
| Cc1ccc(-n2c3nc(=O)n(C)c(=O)c-3nc3ccccc32)cc1 | 6.43 µM (inactive) | 3.26 µM (inactive) | 17.3 µM (inactive) | 12.9 µM (inactive) | 43.9 µM (inactive) | 17.3 µM (inactive) | 14.9 µM (inactive) | 17.3 µM (inactive) | 3.33 µM (inactive) | 3.24 µM (inactive) | 23.8 µM (inactive) | 12.5 µM (inactive) | 35.7 µM (inactive) | 14.6 µM (inactive) | 27.2 µM (inactive) | 12.8 µM (inactive) | 40.2 µM (inactive) | – | – |
